In US9210927B2, “Pesticidal compositions and processes related thereto” (Dow AgroSciences LLC, priority 2013, dated 2015):

Legend:
Format in all cases: in vivo
[1] = tested on: BAW (Spodoptera exigua); assay: Bioassays on Beet Armyworm (BAW), 128-well diet tray assay; conditions: Spodoptera exigua, 168 h, read-out: BAW Rating
Procedure, shortened: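 Second-instar larvae (one to five per well) placed on artificial diet treated with 50 μg/cm^2 compound in 90:10 acetone-water, eight wells per compound. Held covered at 25° C., 14:10 light-dark for five to seven days; percent mortality averaged across wells.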

[2] = tested on: CEW (Helicoverpa zea); assay: Bioassays on Corn Earworm (CEW), 128-well diet tray assay; conditions: Helicoverpa zea, 168 h; percent mortality, second instar larvae, 50 μg/cm^2 on artificial diet, five to seven days, 25° C.; read-out: CEW Rating
Procedure, shortened: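 Second-instar larvae (one to five per well) placed on artificial diet treated with 50 μg/cm^2 compound in 90:10 acetone-water and dried, eight wells per compound. Held 25 °C, 14:10 light-dark, five to seven days; percent mortality scored per well and averaged.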

[3] = tested on: GPA (Myzus persicae); assay: Bioassays on Green Peach Aphid (GPA), foliar spray on cabbage seedlings; conditions: 72 h, corrected % control (Abbott), 200 ppm spray on cabbage seedlings, three days, read-out: GPA Rating
Procedure: Bioassays on Green Peach Aphid (“GPA”) (Myzus persicae) Certain molecules disclosed in this document were tested against GPA using procedures described in the following example. In the reporting of the results, the “GPA Rating Table” was used (See Table Section). Cabbage seedlings grown in 3-inch pots, with 2-3 small (3-5 cm) true leaves, were used as test substrate. The seedlings were infested with 20-50 GPA (wingless adult and nymph stages) one day prior to chemical application. Four pots with individual seedlings were used for each treatment. Test compounds (2 mg) were dissolved in 2 mL of acetone/MeOH (1:1) solvent, forming stock solutions of 1000 ppm test compound. The stock solutions were diluted 5× with 0.025% Tween 20 in H2O to obtain the solution at 200 ppm test compound. A hand-held aspirator-type sprayer was used for spraying a solution to both sides of […] leaves until runoff. Reference plants (solvent check) were sprayed with the diluent only containing 20% by volume of acetone/MeOH (1:1) solvent. Treated plants were held in a holding room for three days at approximately 25° C. and ambient relative humidity (RH) prior to grading. Evaluation was conducted by counting the number of live aphids per plant under a microscope. Percent Control was measured by using Abbott's correction formula (W. S. Abbott, “A Method of Computing the Effectiveness of an Insecticide” J. Econ. Entomol. 18 (1925), pp. 265-267) as follows. Corrected % Control=100*(X−Y)/X • where • X=No. of live aphids on solvent check plants and • Y=No. of live aphids on treated plants The results are indicated in the table entitled “Table 3: Assay Results” (See Table Section).

SMILES | pest or weed control at 50 µg/cm2 [1] | pest or weed control at 50 µg/cm2 [2] | pest or weed control at 200 ppm [3]
O=C(CNC(=O)c1ccc(/C=C/C(c2cc(Cl)c(F)c(Cl)c2)C(F)(F)F)cc1Br)NCC(F)(F)F (stereo not drawn) [AC79, (E)-2-Bromo-4-(3-(3,5-dichloro-4-fluorophenyl)-4,4,4-trifluorobut-1-en-1-yl)-N-(2-oxo-2-((2,2,2-trifluoroethyl)amino)ethyl)benzamide] | 50 to 100% | 50 to 100% | 80 to 100%
CCc1cc(/C=C/C(c2cc(Cl)c(F)c(Cl)c2)C(F)(F)F)ccc1C(=O)NCC(=O)NCC(F)(F)F (stereo not drawn) [AC80] | 50 to 100% | 50 to 100% | 0 to 80%
O=C(NC1CS(=O)(=O)C1)c1ccc(/C=C/C(c2cc(Cl)cc(Cl)c2)C(F)(F)F)cc1F (stereo not drawn) [AC83, (E)-4-(3-(3,5-Dichlorophenyl)-4,4,4-trifluorobut-1-en-1-yl)-N-(1,1-dioxidothietan-3-yl)-2-fluorobenzamide] | 50 to 100% | 50 to 100% | 0 to 80%
COc1cc(/C=C/C(c2cc(Cl)c(F)c(Cl)c2)C(F)(F)F)ccc1C(=O)NC1CS(=O)(=O)C1 (stereo not drawn) [AC85] | 50 to 100% | 50 to 100% | 0 to 80%
O=C(NC1C[S+]([O-])C1)c1ccc(/C=C/C(c2cc(Cl)c(F)c(Cl)c2)C(F)(F)F)cc1F (stereo not drawn) [AC87] | 50 to 100% | 50 to 100% | 0 to 80%
Cc1cc(/C=C/C(c2cc(Cl)cc(Cl)c2)C(F)(F)F)ccc1C(=O)NCc1nnc(C2CC2)o1 (stereo not drawn) [AC89, (E)-N-((5-Cyclopropyl-1,3,4-oxadiazol-2-yl)methyl)-4-(3-(3,5-dichlorophenyl)-4,4,4-trifluorobut-1-en-1-yl)-2-methylbenzamide] | 50 to 100% | 50 to 100% | 0 to 80%
O=C(NC1CCN(C(=O)CC(F)(F)F)CC1)c1ccc(/C=C/C(c2cc(Cl)c(Cl)c(Cl)c2)C(F)(F)F)cc1Br (stereo not drawn) [AC104, (E)-2-Bromo-4-(4,4,4-trifluoro-3-(3,4,5-trichlorophenyl)but-1-en-1-yl)-N-(1-(3,3,3-trifluoropropanoyl)piperidin-4-yl)benzamide] | 50 to 100% | 50 to 100% | 0 to 80%
CN1CCC(NC(=O)c2ccc(/C=C/C(c3cc(Cl)c(Cl)c(Cl)c3)C(F)(F)F)cc2Br)CC1 (stereo not drawn) [AC106, (E)-2-Bromo-N-(1-methylpiperidin-4-yl)-4-(4,4,4-trifluoro-3-(3,4,5-trichlorophenyl)but-1-en-1-yl)benzamide] | 50 to 100% | 50 to 100% | 0 to 80%
O=C(CC(F)(F)F)NC1CCCc2cc(/C=C/C(c3cc(Cl)c(Cl)c(Cl)c3)C(F)(F)F)ccc21 (stereo not drawn) [BC5] | 50 to 100% | 50 to 100% | 0 to 80%
O=C(CC(F)(F)F)NC1CCc2cc(/C=C/C(c3cc(Cl)c(F)c(Cl)c3)C(F)(F)F)ccc21 (stereo not drawn) [BC8] | 50 to 100% | 50 to 100% | 0 to 80%
Fc1c(Cl)cc(C(/C=C/c2ccc3c(c2)CCC3NCCC(F)(F)F)C(F)(F)F)cc1Cl (stereo not drawn) [BC10, (E)-5-(3-(3,5-Dichloro-4-fluorophenyl)-4,4,4-trifluorobut-1-en-1-yl)-N-(3,3,3-trifluoropropyl)-2,3-dihydro-1H-inden-1-amine] | 50 to 100% | 50 to 100% | 0 to 80%
O=C(NCc1ccc(/C=C/C(c2cc(Cl)cc(Cl)c2)C(F)(F)F)cc1)C1CC1 (stereo not drawn) [CC2] | 50 to 100% | 50 to 100% | 0 to 80%
CCC(=O)NCc1ccc(/C=C/C(c2cc(Cl)cc(Cl)c2)C(F)(F)F)cc1 (stereo not drawn) [CC4] | 50 to 100% | 0 to 50% | 0 to 80%
O=C(NCc1ccc(/C=C/C(c2cc(Cl)c(Cl)c(Cl)c2)C(F)(F)F)cc1)C1CC1 (stereo not drawn) [CC5] | 50 to 100% | 50 to 100% | 0 to 80%
O=C(CC(F)(F)F)NCc1ccc(/C=C/C(c2cc(Cl)c(Cl)c(Cl)c2)C(F)(F)F)cc1 (stereo not drawn) [CC6] | 50 to 100% | 50 to 100% | 0 to 80%
CC(=O)NCc1ccc(/C=C/C(c2cc(Cl)cc(Cl)c2)C(F)(F)F)cc1Cl (stereo not drawn) [CC7, (E)-N-(2-Chloro-4-(3-(3,5-dichlorophenyl)-4,4,4-trifluorobut-1-en-1-yl)benzyl)acetamide] | 50 to 100% | 50 to 100% | 0 to 80%

SMILES | pest or weed control at 50 µg/cm2 [1] | pest or weed control at 50 µg/cm2 [2] | pest or weed control at 200 ppm [3]
O=C(CC(F)(F)F)NCc1ccc(/C=C/C(c2cc(Cl)cc(Cl)c2)C(F)(F)F)cc1Cl (stereo not drawn) [CC9] | 50 to 100% | 50 to 100% | 0 to 80%
O=C(NCc1ccc(/C=C/C(c2cc(Cl)c(Cl)c(Cl)c2)C(F)(F)F)cc1Cl)C1CC1 (stereo not drawn) [CC11] | 50 to 100% | 50 to 100% | 0 to 80%
O=C(NCc1ccc(/C=C/C(c2cc(Cl)c(F)c(Cl)c2)C(F)(F)F)cc1Cl)C1CC1 (stereo not drawn) [CC15] | 50 to 100% | 50 to 100% | 0 to 80%
O=C(NCc1ccc(/C=C/C(c2ccc(Cl)c(Cl)c2)C(F)(F)F)cc1Cl)C1CC1 (stereo not drawn) [CC17] | 50 to 100% | 50 to 100% | 0 to 80%
O=C(CC(F)(F)F)NCc1ccc(/C=C/C(c2ccc(Cl)c(Cl)c2)C(F)(F)F)cc1Cl (stereo not drawn) [CC18] | 50 to 100% | 50 to 100% | 0 to 80%
CSCCC(=O)NCc1ccc(/C=C/C(c2cc(Cl)c(Cl)c(Cl)c2)C(F)(F)F)cc1Cl (stereo not drawn) [CC19] | 50 to 100% | 50 to 100% | 0 to 80%
O=C(NCc1ccc(/C=C/C(c2cc(Cl)c(Cl)c(Cl)c2)C(F)(F)F)cc1C(F)(F)F)C1CC1 (stereo not drawn) [CC22] | 50 to 100% | 50 to 100% | 0 to 80%
O=C(NCc1ccc(/C=C/C(c2cc(Cl)c(Cl)c(Cl)c2)C(F)(F)F)cc1C(F)(F)F)c1cccnc1 (stereo not drawn) [CC23] | 50 to 100% | 50 to 100% | 0 to 80%
O=C(CC(F)(F)F)NCc1ccc(/C=C/C(c2cc(Cl)c(Cl)c(Cl)c2)C(F)(F)F)cc1Br (stereo not drawn) [CC25] | 50 to 100% | 50 to 100% | 0 to 80%
O=C(C1CC1)N(Cc1ccccn1)Cc1ccc(/C=C/C(c2cc(Cl)c(Cl)c(Cl)c2)C(F)(F)F)cc1C(F)(F)F (stereo not drawn) [CC29, (E)-N-(Pyridin-2-ylmethyl)-N-(4-(4,4,4-trifluoro-3-(3,4,5-trichlorophenyl)but-1-enyl)-2-(trifluoromethyl)benzyl)cyclopropanecarboxamide] | 50 to 100% | 50 to 100% | 0 to 80%
CCNC(=O)NCc1ccc(/C=C/C(c2cc(Cl)c(Cl)c(Cl)c2)C(F)(F)F)cc1C(F)(F)F (stereo not drawn) [CC32] | 50 to 100% | 50 to 100% | 0 to 80%
CCNC(=O)NCc1ccc(/C=C/C(c2cc(Cl)c(Cl)c(Cl)c2)C(F)(F)F)cc1Br (stereo not drawn) [CC33] | 50 to 100% | 50 to 100% | 0 to 80%
O=C(NCc1ccc(/C=C/C(c2cc(Cl)c(Cl)c(Cl)c2)C(F)(F)F)cc1Cl)N1CCOCC1 (stereo not drawn) [CC34] | 50 to 100% | 50 to 100% | 0 to 80%
FC(F)(F)C(/C=C/c1ccc(CNc2ccccn2)c(Cl)c1)c1cc(Cl)c(Cl)c(Cl)c1 (stereo not drawn) [CC43, (E)-N-(2-Chloro-4-(4,4,4-trifluoro-3-(3,4,5-trichlorophenyl)but-1-en-1-yl)benzyl)pyridin-2-amine] | 50 to 100% | 0 to 50% | 0 to 80%
O=C(CC(F)(F)F)NCc1ncc(/C=C/C(c2cc(Cl)c(Cl)c(Cl)c2)C(F)(F)F)cc1Cl (stereo not drawn) [CC44, (E)-N-((3-Chloro-5-(4,4,4-trifluoro-3-(3,4,5-trichlorophenyl)-but-1-en-1-yl)pyridin-2-yl)methyl)-3,3,3-trifluoropropanamide] | 50 to 100% | 50 to 100% | 0 to 80%
